In the supplement of paper PMC10307832:

Tests used:
Experiment in all cases: relative viability (nuclei count vs DMSO), 5 days (fraction); higher = more cells survive
NCI-H520 = test system: NCI-H520
Procedure, shortened: (§1)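 Lung cancer cell lines were pin-tool dosed in 1536-well plates on the day after seeding, with either a lone drug or a fixed anchor-drug dose plus five library-drug doses (not always all listed) in √10 steps. Nuclei were counted on 4× images after 5 days. Relative viability is the ratio of treated-well to vehicle-well nuclei counts, with each value a median of duplicate plates.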

NCI-H1975 = test system: NCI-H1975
Procedure, shortened: as §1

NCI-H1563 = test system: NCI-H1563
Procedure, shortened: as §1

EKVX = test system: EKVX
Procedure, shortened: as §1

NCI-H661 = test system: NCI-H661
Procedure, shortened: as §1

NCI-H2342 = test system: NCI-H2342
Procedure, shortened: as §1

NCI-H2228 = test system: NCI-H2228
Procedure, shortened: as §1

NCI-H1355 = test system: NCI-H1355
Procedure, shortened: as §1

H3255 = test system: H3255
Procedure, shortened: as §1

CAL-12T = test system: CAL-12T
Procedure, shortened: as §1

NCI-H2405 = test system: NCI-H2405
Procedure, shortened: as §1

LK-2 = test system: LK-2
Procedure, shortened: as §1

RERF-LC-KJ = test system: RERF-LC-KJ
Procedure, shortened: as §1

NCI-H1650 = test system: NCI-H1650
Procedure, shortened: as §1

NCI-H1755 = test system: NCI-H1755
Procedure, shortened: as §1

PC-14 = test system: PC-14
Procedure, shortened: as §1

PC-3 [JPC-3] = test system: PC-3 [JPC-3]
Procedure, shortened: as §1

HCC-15 = test system: HCC-15
Procedure, shortened: as §1

LCLC-97TM1 = test system: LCLC-97TM1
Procedure, shortened: as §1

HCC-827 = test system: HCC-827
Procedure, shortened: as §1

NCI-H1734 = test system: NCI-H1734
Procedure, shortened: as §1

NCI-H322M = test system: NCI-H322M
Procedure, shortened: as §1

Nc1ccn([C@@H]2O[C@H](CO)[C@@H](O)[C@@H]2O)c(=O)n1 [Cytarabine] + Nc1nc2[nH]cc(CCc3ccc(C(=O)N[C@@H](CCC(=O)O)C(=O)O)cc3)c2c(=O)[nH]1 [Pemetrexed] (partner 0.2 µM)
relative viability (NCI-H520; first compound 0.005 µM): 0.605
relative viability (NCI-H520; first compound 0.01581 µM): 0.65
relative viability (NCI-H520; first compound 0.05 µM): 0.639
relative viability (NCI-H520; first compound 0.1581 µM): 0.528
relative viability (NCI-H520; first compound 0.5 µM): 0.398
relative viability (NCI-H1975; first compound 0.005 µM): 0.255
relative viability (NCI-H1975; first compound 0.01581 µM): 0.287
relative viability (NCI-H1975; first compound 0.05 µM): 0.297
relative viability (NCI-H1975; first compound 0.1581 µM): 0.28
relative viability (NCI-H1975; first compound 0.5 µM): 0.266
relative viability (NCI-H1563; first compound 0.005 µM): 0.823
relative viability (NCI-H1563; first compound 0.01581 µM): 0.727
relative viability (NCI-H1563; first compound 0.05 µM): 0.637
relative viability (NCI-H1563; first compound 0.1581 µM): 0.505
relative viability (NCI-H1563; first compound 0.5 µM): 0.44
relative viability (EKVX; first compound 0.005 µM): 0.473
relative viability (EKVX; first compound 0.01581 µM): 0.364
relative viability (EKVX; first compound 0.05 µM): 0.361
relative viability (EKVX; first compound 0.5 µM): 0.362
relative viability (NCI-H661; first compound 0.005 µM): 0.94
relative viability (NCI-H661; first compound 0.01581 µM): 0.849
relative viability (NCI-H661; first compound 0.05 µM): 0.851
relative viability (NCI-H661; first compound 0.1581 µM): 0.609
relative viability (NCI-H661; first compound 0.5 µM): 0.373
relative viability (NCI-H2342; first compound 0.005 µM): 0.667
relative viability (NCI-H2342; first compound 0.01581 µM): 0.707
relative viability (NCI-H2342; first compound 0.05 µM): 0.638
relative viability (NCI-H2342; first compound 0.1581 µM): 0.504
relative viability (NCI-H2342; first compound 0.5 µM): 0.353
relative viability (NCI-H2228; first compound 0.005 µM): 0.32
relative viability (NCI-H2228; first compound 0.01581 µM): 0.275
relative viability (NCI-H2228; first compound 0.05 µM): 0.134
relative viability (NCI-H2228; first compound 0.1581 µM): 0.0993
relative viability (NCI-H2228; first compound 0.5 µM): 0.133
relative viability (NCI-H1355; first compound 0.005 µM): 0.883
relative viability (NCI-H1355; first compound 0.01581 µM): 0.988
relative viability (NCI-H1355; first compound 0.05 µM): 0.821
relative viability (NCI-H1355; first compound 0.1581 µM): 0.553
relative viability (NCI-H1355; first compound 0.5 µM): 0.324
relative viability (H3255; first compound 0.005 µM): 0.625
relative viability (H3255; first compound 0.01581 µM): 0.565
relative viability (H3255; first compound 0.05 µM): 0.506
relative viability (H3255; first compound 0.1581 µM): 0.526
relative viability (H3255; first compound 0.5 µM): 0.432
relative viability (CAL-12T; first compound 0.005 µM): 0.928
relative viability (CAL-12T; first compound 0.01581 µM): 1.11
relative viability (CAL-12T; first compound 0.05 µM): 0.984
relative viability (CAL-12T; first compound 0.1581 µM): 0.543
relative viability (CAL-12T; first compound 0.5 µM): 0.249
relative viability (NCI-H2405; first compound 0.005 µM): 1
relative viability (NCI-H2405; first compound 0.01581 µM): 0.654
relative viability (NCI-H2405; first compound 0.05 µM): 0.61
relative viability (NCI-H2405; first compound 0.1581 µM): 0.495
relative viability (NCI-H2405; first compound 0.5 µM): 0.41
relative viability (LK-2; first compound 0.005 µM): 0.34
relative viability (LK-2; first compound 0.01581 µM): 0.233
relative viability (LK-2; first compound 0.05 µM): 0.11
relative viability (LK-2; first compound 0.1581 µM): 0.091
relative viability (LK-2; first compound 0.5 µM): 0.0936
relative viability (RERF-LC-KJ; first compound 0.005 µM): 0.453
relative viability (RERF-LC-KJ; first compound 0.01581 µM): 0.502
relative viability (RERF-LC-KJ; first compound 0.05 µM): 0.381
relative viability (RERF-LC-KJ; first compound 0.1581 µM): 0.34
relative viability (RERF-LC-KJ; first compound 0.5 µM): 0.249
relative viability (NCI-H1650; first compound 0.005 µM): 0.367
relative viability (NCI-H1650; first compound 0.01581 µM): 0.353
relative viability (NCI-H1650; first compound 0.05 µM): 0.262
relative viability (NCI-H1650; first compound 0.1581 µM): 0.199
relative viability (NCI-H1650; first compound 0.5 µM): 0.158
relative viability (NCI-H1755; first compound 0.005 µM): 0.472
relative viability (NCI-H1755; first compound 0.01581 µM): 0.453
relative viability (NCI-H1755; first compound 0.05 µM): 0.381
relative viability (NCI-H1755; first compound 0.1581 µM): 0.336
relative viability (NCI-H1755; first compound 0.5 µM): 0.351
relative viability (PC-14; first compound 0.005 µM): 0.183
relative viability (PC-14; first compound 0.01581 µM): 0.156
relative viability (PC-14; first compound 0.05 µM): 0.187
relative viability (PC-14; first compound 0.1581 µM): 0.0581
relative viability (PC-14; first compound 0.5 µM): 0.0565
relative viability (PC-3 [JPC-3]; first compound 0.005 µM): 1
relative viability (PC-3 [JPC-3]; first compound 0.01581 µM): 0.914
relative viability (PC-3 [JPC-3]; first compound 0.05 µM): 0.616
relative viability (PC-3 [JPC-3]; first compound 0.1581 µM): 0.557
relative viability (PC-3 [JPC-3]; first compound 0.5 µM): 0.716
relative viability (HCC-15; first compound 0.005 µM): 0.249
relative viability (HCC-15; first compound 0.01581 µM): 0.215
relative viability (HCC-15; first compound 0.05 µM): 0.226
relative viability (HCC-15; first compound 0.1581 µM): 0.225
relative viability (HCC-15; first compound 0.5 µM): 0.222
relative viability (LCLC-97TM1; first compound 0.005 µM): 0.209
relative viability (LCLC-97TM1; first compound 0.01581 µM): 0.179
relative viability (LCLC-97TM1; first compound 0.05 µM): 0.0983
relative viability (LCLC-97TM1; first compound 0.1581 µM): 0.108
relative viability (LCLC-97TM1; first compound 0.5 µM): 0.0633
relative viability (HCC-827; first compound 0.005 µM): 0.222
relative viability (HCC-827; first compound 0.01581 µM): 0.281
relative viability (HCC-827; first compound 0.05 µM): 0.161
relative viability (HCC-827; first compound 0.1581 µM): 0.152
relative viability (HCC-827; first compound 0.5 µM): 0.113
relative viability (NCI-H1734; first compound 0.005 µM): 0.501
relative viability (NCI-H1734; first compound 0.01581 µM): 0.236
relative viability (NCI-H1734; first compound 0.05 µM): 0.193
relative viability (NCI-H1734; first compound 0.1581 µM): 0.117
relative viability (NCI-H1734; first compound 0.5 µM): 0.103
relative viability (NCI-H322M; first compound 0.005 µM): 0.609
relative viability (NCI-H322M; first compound 0.01581 µM): 0.628
relative viability (NCI-H322M; first compound 0.05 µM): 0.572
relative viability (NCI-H322M; first compound 0.1581 µM): 0.408
relative viability (NCI-H322M; first compound 0.5 µM): 0.384
